Source: patent publication USRE42890E1, “Furazanobenzimidazoles” (Basilea Pharmaceutica AG, priority 2003, dated 2011)

Assays:
[1] = test system: Jurkat; test: MTS proliferation assay, Jurkat; format: cell-based, human; conditions: 72 h incubation, read-out: MTS proliferation assay IC 50 Jurkat
In short: (§1)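 Cells were seeded 24 h before treatment and exposed to compound at 10, 3, 1 and 0.3 μM final for 72 h at 37 °C, 7.5% CO2 in RPMI-1640 with 5% or 10% FCS. Viability was read by MTS reagent (3 h) as absorbance at 492 nm.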

[2] = test system: HT1080; test: MTS proliferation assay, HT1080; format: cell-based, human; conditions: HT1080, 72 h incubation; read-out: MTS proliferation assay IC 50 HT1080
Experimental: Cell lines are cultured in RPMI-1640 tissue culture medium containing either 5% or 10% fetal calf serum, 0.05 mM 2-mercaptoethanol, 2 mM glutamine and penicillin/streptomycin 50 μg/ml (complete medium) (Sigma, Buchs, Switzerland). General growth conditions are 37° C. and 7.5% CO2.
The following human cell lines (either EGFP transfected or not) are being used: HeLa (ATCC: CCL-2), KB (ATCC: CCL-17), MCF7 (ATCC: HTB-22), SK-BR-3 (ATCC: HTB-30), SK-Mel 1 (ATCC: HTB-67), SK-Mel 28 (ATCC: HTB-72), PC-3 (ATCC: CRL-1435), SW 480 (ATCC: CCL-228), NCl-H460 (ATCC: HTB-177), NCl-H1792 (ATCC: CRL-5895), HT1080 (ATCC: CCL-21), Jurkat (ATCC: TIB-152), Ramos (ATCC: CRL-1596), Raji (ATCC: CCL-86), H9 (ATCC: HTB-176), Hut78 (ATCC: TIB-161), K562 (ATCC: CCL 243), HL-60 (ATCC: CCL 240), U-87MG (ATCC: HTB-14), HepG2 (ATCC: HB-8065), U-2 OS (ATCC: HTB-96), Saos-2 (ATCC: HTB-85), U937 (ATCC: CRL 1593), Hs 578T (ATCC: HTB 126), HBL-100 (ATCC: HTB 124), Molt-4 (ATCC: CRL 1582).
The assay is performed in 96 well tissue culture plates. The cells (range: 1.5*10^3-10^4) are seeded out in 80 μl complete medium 24 h prior to compound treatment. The test compounds are added in 20 μl complete medium containing max 5% DMSO. The final compound concentrations in the assays are 10 μM, 3 μM, 1 μM and 0.3 μM, respectively. The assay plates are incubated for 72 h at culture conditions. The MTS reagent is prepared according to the manufacturer's protocol (Promega G1111). 20 μl MTS reagent are added to each well, the assay plates are quickly spun and incubated for another 3 h at culture conditions. Subsequently, the plates are shortly shaked and absorption measured with a microplate-reader at 492 nm.

[3] = test system: HeLa; test: MTS proliferation assay, HeLa; format: cell-based, human; conditions: 72 h incubation, read-out: MTS proliferation assay IC 50 HeLa
In short: as §1

[4] = test system: MRC5; test: MTS proliferation assay, MRC5; format: cell-based; conditions: MRC5, 72 h incubation; read-out: MTS proliferation assay IC 50 MRC5
In short: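 Cells in RPMI-1640 with 5% or 10% FCS, 2-mercaptoethanol and glutamine were seeded 24 h before treatment with compound at final 10, 3, 1 and 0.3 μM. After 72 h at 37° C and 7.5% CO2, MTS reagent was added for 3 h and absorbance read at 492 nm.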

[5] = test system: adherent cells or suspension cells; test: Hoechst 33342 nuclear staining (fraction of apoptotic nuclei); format: cell-based; design: key: 0 relating to no activity; 1 relating to weak activity comprising less than 70% of the cells; score 2 relating to strong activity comprising more than 70% of the cells

| Structure (SMILES) | IC50 [1] [nM] | IC50 [2] [nM] | IC50 [3] [nM] | IC50 [4] [nM] | Hoechst 33342 nuclear staining score ([5]; H460, conc 0.01 μm) | Hoechst 33342 nuclear staining score ([5]; H460, conc 0.1 μm) | Hoechst 33342 nuclear staining score ([5]; H460, conc 1 μm) | Hoechst 33342 nuclear staining score ([5]; HeLa, conc 0.01 μm) | Hoechst 33342 nuclear staining score ([5]; HeLa, conc 0.1 μm) | Hoechst 33342 nuclear staining score ([5]; HeLa, conc 1 μm) | Hoechst 33342 nuclear staining score ([5]; Jily, conc 0.01 μm) | Hoechst 33342 nuclear staining score ([5]; Jily, conc 0.1 μm) | Hoechst 33342 nuclear staining score ([5]; Jily, conc 1 μm) | Hoechst 33342 nuclear staining score ([5]; Jurkat, conc 0.01 μm) | Hoechst 33342 nuclear staining score ([5]; Jurkat, conc 0.1 μm) | Hoechst 33342 nuclear staining score ([5]; Jurkat, conc 1 μm) | Hoechst 33342 nuclear staining score ([5]; MRC5, conc 0.01 μm) | Hoechst 33342 nuclear staining score ([5]; MRC5, conc 0.1 μm) | Hoechst 33342 nuclear staining score ([5]; MRC5, conc 1 μm) | Hoechst 33342 nuclear staining score ([5]; PBLs, conc 0.01 μm) | also measured |
| --- | --- | --- | --- | --- | --- | --- | --- | --- | --- | --- | --- | --- | --- | --- | --- | --- | --- | --- | --- | --- | --- |
| Cc1cc2nc(-c3nonc3N)n(CC(=O)c3ccc(Cl)cc3)c2cc1C [Example 110] | > 1000 | > 1000 | > 1000 | > 1000 | 0 | 0 | 0 | 0 | 0 | 0 | 0 | 0 | 0 | 0 | 0 | 0 | 0 | 0 | 0 | 0 | Hoechst 33342 nuclear staining score ([5]; PBLs, conc 0.1 μm): 0; Hoechst 33342 nuclear staining score ([5]; PBLs, conc 1 μm): 0 |
| COc1cc2nc(-c3nonc3N)n(CC(=O)c3ccccc3)c2cc1OC [Example 113] | > 1000 | > 1000 | > 1000 | > 1000 | 0 | 0 | 0 | 0 | 0 | 0 | 0 | 0 | 0 | 0 | 0 | 0 | 0 | 0 | 0 | 0 | Hoechst 33342 nuclear staining score ([5]; PBLs, conc 0.1 μm): 0; Hoechst 33342 nuclear staining score ([5]; PBLs, conc 1 μm): 0 |
| Cc1cc2nc(-c3nonc3N)n(CC(=O)c3ccc(-c4ccccc4)cc3)c2cc1C [Example 112] | > 1000 | > 1000 | > 1000 | > 1000 | 0 | 0 | 0 | 0 | 0 | 0 | 0 | 0 | 0 | 0 | 0 | 0 | 0 | 0 | 0 | 0 | Hoechst 33342 nuclear staining score ([5]; PBLs, conc 0.1 μm): 0; Hoechst 33342 nuclear staining score ([5]; PBLs, conc 1 μm): 0 |
| COc1ccc(C(=O)Cn2c(-c3nonc3N)nc3cc(OC)c(OC)cc32)cc1 [Example 116] | > 1000 | > 1000 | > 1000 | > 1000 | 0 | 0 | 0 | 0 | 0 | 0 | 0 | 0 | 0 | 0 | 0 | 0 | 0 | 0 | 0 | 0 | Hoechst 33342 nuclear staining score ([5]; PBLs, conc 0.1 μm): 0; Hoechst 33342 nuclear staining score ([5]; PBLs, conc 1 μm): 0 |
| COc1cc2nc(-c3nonc3N)n(CC(=O)c3ccc(Br)cc3)c2cc1OC [Example 115] | > 1000 | > 1000 | > 1000 | > 1000 | 0 | 0 | 0 | 0 | 0 | 0 | 0 | 0 | 0 | 0 | 0 | 0 | 0 | 0 | 0 | 0 | Hoechst 33342 nuclear staining score ([5]; PBLs, conc 0.1 μm): 0; Hoechst 33342 nuclear staining score ([5]; PBLs, conc 1 μm): 0 |
| COc1ccc(C(=O)Cn2c(-c3nonc3N)nc3cc(C)c(C)cc32)cc1 [Example 111] | > 1000 | > 1000 | > 1000 | > 1000 | 0 | 0 | 0 | 0 | 0 | 0 | 0 | 0 | 0 | 0 | 0 | 0 | 0 | 0 | 0 | 0 | Hoechst 33342 nuclear staining score ([5]; PBLs, conc 0.1 μm): 0; Hoechst 33342 nuclear staining score ([5]; PBLs, conc 1 μm): 0 |
